Laboratory results reported in patent publication US11000033B2, “Ketone or oxime compound, and herbicide” (NISSAN CHEMICAL CORPORATION, priority 2014, dated 2021).

Tests used:
Format in all cases: in vivo
wheat [1] = experiment: Test Example 4: effect on crop by soil treatment (symbol e); settings: for e: wheat, effect on crop grade: application herbicide amount 320 g/ha; for e: wheat, effect grade on crop: 320 g/ha
Method in brief: (§1)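 Grown at 25° C. to 30° C. in a greenhouse, the crops came from seed sown spot-wise in sterilized diluvial soil under roughly 1.5 cm of covering soil.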

Lolium multiflorum Lam. = experiment: Test Example 4: herbicidal effect by soil treatment (symbol K)
Method in brief: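 Seeds were sown in sterilized diluvial soil, covered with about 1.5 cm of soil, and the soil surface was sprayed with a water-diluted emulsion of the compound at a predetermined rate. Plants grew in a greenhouse at 25° C. to 30° C.; effects were scored visually 3 weeks after application.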

Scirpus juncoides = experiment: Test Example 1: herbicidal activity, application before weed generation in submerged conditions (symbol B); settings: application herbicide amount 320 g/ha
Method in brief: (§2)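 Compound emulsion was diluted to a set herbicide amount and applied to the water surface on the sowing day, into submerged (4 cm) alluvial-soil pots sown with mixed weed seeds and transplanted 2.5-leaf rice. Pots were held in a 25–30 °C greenhouse, and weeds were scored 0–5 by herbicidal ratio after 3 weeks.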

Avena fatua = experiment: Test Example 5: herbicidal effect by foliage application, plastic box (symbol I); settings: 320 g/ha, 3 weeks after application
Method in brief: (§3)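 Effect is rated 3 weeks after a foliar spray of water-diluted emulsion concentrate at a predetermined herbicide amount. Plants had grown 14 days in a 25° C. to 30° C. greenhouse from seed in sterilized diluvial soil.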

[2] = tested on: Echinochloa oryzacola Vasing.; experiment: Test Example 2: herbicidal activity, application during weed generation in submerged conditions (symbol A); settings: Table 23; application herbicide amount 320 g/ha; grade 0-5 by criteria of Test Example 1
Method in brief: (§4)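 Steps: fill pots with alluvial soil; add water to 4 cm depth; co-sow the three weeds; grow at 25° C. to 30° C. under glass; at 1–2 leaves, dose the floodwater with diluted emulsion; rate damage visually after 3 weeks.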

Monochoria vaginalis [3] = experiment: Test Example 1: herbicidal activity, application before weed generation in submerged conditions (symbol C); settings: application herbicide amount 320 g/ha
Method in brief: as §2

Monochoria vaginalis [4] = experiment: Test Example 2: herbicidal activity, application during weed generation in submerged conditions (symbol C); settings: Table 23; application herbicide amount 320 g/ha; grade 0-5 by criteria of Test Example 1
Method in brief: as §4

rapeseed = experiment: Test Example 5: effect on crop by foliage application, plastic box (symbol g); settings: 320 g/ha, 3 weeks after application
Method in brief: (§5)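 Box culture: sterile diluvial soil, seeds spot-sown, ~1.5 cm cover, raised under glass at 25–30° C.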

[5] = tested on: directly sowed rice plant; experiment: Test Example 3: effect on crop by foliage application, Wagner pot (symbol b); settings: application herbicide amount 320 g/ha
Method in brief: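 Plants are raised from seed in flooded paddy conditions: water stands 0.1–0.5 cm over alluvial soil, and the pot is kept in a greenhouse at 25–30 °C. Species sown are barnyardgrass (E. crus-galli var. crus-galli), Leptochloa chinensis, Cyperus difformis and rice.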

Veronica persica = experiment: Test Example 5: herbicidal effect by foliage application, plastic box (symbol R); settings: 320 g/ha, 3 weeks after application
Method in brief: as §3

soybean = experiment: Test Example 4: effect on crop by soil treatment (symbol d); settings: for d: soybean, effect on crop grade: application herbicide amount 320 g/ha; for d: soybean, effect grade on crop: 320 g/ha
Method in brief: as §1

wheat [6] = experiment: Test Example 5: effect on crop by foliage application, plastic box (symbol e); settings: 320 g/ha, 3 weeks after application
Method in brief: as §5

Amaranthus retroflexus = experiment: Test Example 5: herbicidal effect by foliage application, plastic box (symbol N); settings: 320 g/ha, 3 weeks after application
Method in brief: as §3

beet = experiment: Test Example 4: effect on crop by soil treatment (symbol f); settings: for f: beet, effect on crop grade: application herbicide amount 320 g/ha; for f: beet, effect grade on crop: 320 g/ha
Method in brief: as §1

[7] = application herbicide amount 320 g/ha

Structure (SMILES)	e: wheat, effect on crop grade (wheat [1])	K: Lolium multiflorum Lam., herbicidal effect grade (Lolium multiflorum Lam.; [7])	Herbicidal effect grade, B: Scirpus juncoides (Scirpus juncoides)	I: Avena fatua, herbicidal effect grade (Avena fatua)	Herbicidal effect grade, A: Echinochloa oryzacola Vasing. [2]	Herbicidal effect grade, C: Monochoria vaginalis (Monochoria vaginalis [3])	Herbicidal effect grade, C: Monochoria vaginalis (Monochoria vaginalis [4])	g: rapeseed, effect on crop grade (rapeseed)	effect on crop b (directly sowed rice plant), grade 0-5 [5]	R: Veronica persica, herbicidal effect grade (Veronica persica)	d: soybean, effect on crop grade (soybean)	e: wheat, effect on crop grade (wheat [6])	N: Amaranthus retroflexus, herbicidal effect grade (Amaranthus retroflexus)	f: beet, effect on crop grade (beet)	e: wheat, effect grade on crop (wheat [1])	K: Lolium multiflorum Lam., herbicidal effect grade (Lolium multiflorum Lam.; 320 g/ha)	d: soybean, effect grade on crop (soybean)	f: beet, effect grade on crop (beet)	other results
CON=C(C)CC1CC(O)=C(c2c(C)cc(C)cc2OC)C1=O (centres unmarked) [6-037, 3-hydroxy-2-(2-methoxy-4,6-dimethylphenyl)-5-{2-(methoxyimino)propyl}cyclopent-2-enone]	5 (Herbicidal ratio of 90% or more (almost completely withered))	5 (Herbicidal ratio of 90% or more (almost completely withered))	5 (Herbicidal ratio of 90% or more (almost completely withered))	5 (Herbicidal ratio of 90% or more (almost completely withered))	5 (Herbicidal ratio of 90% or more (almost completely withered))	4 (Herbicidal ratio of 70% or higher and lower than 90%)	4 (Herbicidal ratio of 70% or higher and lower than 90%)	5 (Herbicidal ratio of 90% or more (almost completely withered))	5 (Herbicidal ratio of 90% or more (almost completely withered))	3 (Herbicidal ratio of 40% or higher and lower than 70%)	2 (Herbicidal ratio of 20% or higher and lower than 40%)	5 (Herbicidal ratio of 90% or more (almost completely withered))	5 (Herbicidal ratio of 90% or more (almost completely withered))	0 (Herbicidal ratio of 5% or lower (almost no effect))	–	–	–	–	–
CC(=O)CC1CC(OC(=O)C(C)(C)C)=C(c2c(C)cc(C)cc2C)C1=O (centres unmarked) [2-018]	0 (Herbicidal ratio of 5% or lower (almost no effect))	5 (Herbicidal ratio of 90% or more (almost completely withered))	2 (Herbicidal ratio of 20% or higher and lower than 40%)	0 (Herbicidal ratio of 5% or lower (almost no effect))	4 (Herbicidal ratio of 70% or higher and lower than 90%)	1 (Herbicidal ratio of 5% or higher and lower than 20%)	0 (Herbicidal ratio of 5% or lower (almost no effect))	0 (Herbicidal ratio of 5% or lower (almost no effect))	5 (Herbicidal ratio of 90% or more (almost completely withered))	0 (Herbicidal ratio of 5% or lower (almost no effect))	0 (Herbicidal ratio of 5% or lower (almost no effect))	0 (Herbicidal ratio of 5% or lower (almost no effect))	0 (Herbicidal ratio of 5% or lower (almost no effect))	0 (Herbicidal ratio of 5% or lower (almost no effect))	–	–	–	–	–
COCCOC(=O)OC1=C(c2c(C)cc(C)cc2C)C(=O)C(CC(C)=NOC)C1 (centres unmarked) [1-147]	–	–	5 (Herbicidal ratio of 90% or more (almost completely withered))	–	5 (Herbicidal ratio of 90% or more (almost completely withered))	1 (Herbicidal ratio of 5% or higher and lower than 20%)	3 (Herbicidal ratio of 40% or higher and lower than 70%)	–	5 (Herbicidal ratio of 90% or more (almost completely withered))	–	–	–	–	–	5 (Herbicidal ratio of 90% or more (almost completely withered))	5 (Herbicidal ratio of 90% or more (almost completely withered))	0 (Herbicidal ratio of 5% or lower (almost no effect))	0 (Herbicidal ratio of 5% or lower (almost no effect))	I: Avena fatua, herbicidal effect (criteria 0-5) (Avena fatua): 5 (Herbicidal ratio of 90% or more (almost completely withered)); g: rapeseed, effect on crop (criteria 0-5) (rapeseed): 4 (Herbicidal ratio of 70% or higher and lower than 90%); R: Veronica persica, herbicidal effect (criteria 0-5) (Veronica persica): 4 (Herbicidal ratio of 70% or higher and lower than 90%); e: wheat, effect on crop (criteria 0-5) (wheat [6]): 5 (Herbicidal ratio of 90% or more (almost completely withered)); N: Amaranthus retroflexus, herbicidal effect (criteria 0-5) (Amaranthus retroflexus): 1 (Herbicidal ratio of 5% or higher and lower than 20%)
CON=C(C)CC1CC(OC(=O)C(C)Oc2ccc(Oc3ccc(Cl)cc3Cl)cc2)=C(c2c(C)cc(C)cc2C)C1=O (centres unmarked) [1-163]	–	–	4 (Herbicidal ratio of 70% or higher and lower than 90%)	5 (Herbicidal ratio of 90% or more (almost completely withered))	5 (Herbicidal ratio of 90% or more (almost completely withered))	0 (Herbicidal ratio of 5% or lower (almost no effect))	3 (Herbicidal ratio of 40% or higher and lower than 70%)	5 (Herbicidal ratio of 90% or more (almost completely withered))	–	3 (Herbicidal ratio of 40% or higher and lower than 70%)	–	5 (Herbicidal ratio of 90% or more (almost completely withered))	3 (Herbicidal ratio of 40% or higher and lower than 70%)	–	0 (Herbicidal ratio of 5% or lower (almost no effect))	5 (Herbicidal ratio of 90% or more (almost completely withered))	0 (Herbicidal ratio of 5% or lower (almost no effect))	0 (Herbicidal ratio of 5% or lower (almost no effect))	–
COCC(=O)CC1CC(O)=C(c2c(C)cc(C)cc2C)C1=O (centres unmarked) [2-007]	0 (Herbicidal ratio of 5% or lower (almost no effect))	5 (Herbicidal ratio of 90% or more (almost completely withered))	2 (Herbicidal ratio of 20% or higher and lower than 40%)	0 (Herbicidal ratio of 5% or lower (almost no effect))	3 (Herbicidal ratio of 40% or higher and lower than 70%)	0 (Herbicidal ratio of 5% or lower (almost no effect))	0 (Herbicidal ratio of 5% or lower (almost no effect))	1 (Herbicidal ratio of 5% or higher and lower than 20%)	5 (Herbicidal ratio of 90% or more (almost completely withered))	–	0 (Herbicidal ratio of 5% or lower (almost no effect))	0 (Herbicidal ratio of 5% or lower (almost no effect))	0 (Herbicidal ratio of 5% or lower (almost no effect))	0 (Herbicidal ratio of 5% or lower (almost no effect))	–	–	–	–	–
